Reference: US20260315452A1, “PROTEASE INHIBITORS AND USES THEREOF” (priority 2023, published 2026)

target: SARS-CoV-2 3CLpro (Severe acute respiratory syndrome coronavirus 2, UniProt P0DTD1); assay: biochemical; details: inhibition of SARS-CoV-2 3CLpro; 15 nM 3CLpro, 25 μM fluorogenic substrate, 37° C.; read-out: Inhibitory Activity (IC50)

Row | Structure (SMILES) | IC50
1 | CC(C)C(Nc1c(-c2ncco2)cc(Br)cc1[N+](=O)[O-])C1CN(C(=O)c2cncc3ccccc23)C1 (centres unmarked) [Compound 65, (3-(1-((4-bromo-2-nitro-6-(oxazol-2-yl)phenyl)amino)-2-methylpropyl)azetidin-1-yl)(isoquinolin-4-yl)methanone] | 1 to 10 µM
2 | CNC(=O)c1cc(Cl)cc([N+](=O)[O-])c1N[C@H]1CN(C(=O)c2cncc3ncccc23)CCC1(F)F [Compound 176, (S)-5-chloro-2-((4,4-difluoro-1-(1,7-naphthyridine-5-carbonyl)piperidin-3-yl)amino)-N-methyl-3-nitrobenzamide] | < 0.1 µM
3 | O=C(O)c1cc(Br)cc([N+](=O)[O-])c1N[C@@H]1CCCC[C@@H]1NC(=O)c1cncc2ccccc12 [Compound 52, 5-bromo-2-(((1R, 2S)-2-(isoquinoline-4-carboxamido)cyclohexyl)amino)-3-nitrobenzoic acid] | 1 to 10 µM
4 | CNC(=O)c1cc(Br)cc([N+](=O)[O-])c1N[C@H]1CN(C(=O)c2cncc3ccccc23)C[C@@H]1C [Compound 50, 5-bromo-2-[[(3R, 4S)-1-(isoquinoline-4-carbonyl)-4-methyl-pyrrolidin-3-yl]amino]-N-methyl-3-nitro-benzamide] | < 0.1 µM
5 | CNC(=O)c1cc(Br)cc([N+](=O)[O-])c1N[C@H]1CN(C(=O)c2cncc3cccnc23)CCC1(F)F [Compound 107, (S)-5-bromo-2-((4,4-difluoro-1-(1,6-naphthyridine-8-carbonyl)piperidin-3-yl)amino)-N-methyl-3-nitrobenzamide] | < 0.1 µM
6 | CNC(=O)c1cc(Br)cc([N+](=O)[O-])c1N[C@H]1CN(C(=O)c2cccnc2C#N)CCC1(F)F [Compound 114, (S)-5-bromo-2-((1-(2-cyanonicotinoyl)-4,4-difluoropiperidin-3-yl)amino)-N-methyl-3-nitrobenzamide] | 1 to 10 µM
7 | CNC(=O)c1cc(Br)cc([N+](=O)[O-])c1N1CCc2[nH]nc(-c3cncc4ccccc34)c2C1 [Compound 69, 5-bromo-2-(3-(isoquinolin-4-yl)-1,4,6,7-tetrahydro-5H-pyrazolo[4,3-c]pyridin-5-yl)-N-methyl-3-nitrobenzamide] | 1 to 10 µM
8 | CNC(=O)c1cc(Br)cc(C(F)(F)F)c1N[C@H]1CN(C(=O)c2cncc3cccnc23)CCC1(F)F [Compound 167, (S)-5-bromo-2-((4,4-difluoro-1-(1,6-naphthyridine-8-carbonyl)piperidin-3-yl)amino)-N-methyl-3-(trifluoromethyl)benzamide] | < 0.1 µM
9 | COC1CN(C(=O)c2cc(Br)cc([N+](=O)[O-])c2N[C@H]2CN(C(=O)c3cncc4ccccc34)CCC2(F)F)C1 [Compound 38, (S)-(5-bromo-2-((4,4-difluoro-1-(isoquinoline-4-carbonyl)piperidin-3-yl)amino)-3-nitrophenyl)(3-methoxyazetidin-1-yl)methanone] | < 0.1 µM
10 | O=C(N[C@@H]1CCNC1)c1cc(Br)cc(C(F)(F)F)c1N[C@H]1CN(C(=O)c2cncc3ccccc23)CCC1(F)F [Compound 160, 5-bromo-2-[[(3S)-4,4-difluoro-1-(isoquinoline-4-carbonyl)-3-piperidyl]amino]-N-[(3R)-pyrrolidin-3-yl]-3-(trifluoromethyl)benzamide] | < 0.1 µM
11 | CNC(=O)c1cc(Br)cc([N+](=O)[O-])c1N[C@H]1CN(C(=O)c2cnnn2C)CCC1(F)F [Compound 113, (S)-5-bromo-2-((4,4-difluoro-1-(1-methyl-1H-1,2,3-triazole-5-carbonyl)piperidin-3-yl)amino)-N-methyl-3-nitrobenzamide] | ≥ 10 µM
12 | NNC(=O)c1cc(Br)cc([N+](=O)[O-])c1N[C@@H]1CCCC[C@@H]1NC(=O)c1cncc2ccccc12 [Compound 54, N-((1S,2R)-2-((4-bromo-2-(hydrazinecarbonyl)-6-nitrophenyl)amino)cyclohexyl)isoquinoline-4-carboxamide] | 1 to 10 µM
13 | CNC(=O)c1cc(Br)cc([N+](=O)[O-])c1NC(C1CC1)C1CN(C(=O)c2cncc3ccccc23)C1 (centres unmarked) [Compound 58, 5-bromo-2-((cyclopropyl(1-(isoquinoline-4-carbonyl)azetidin-3-yl)methyl)amino)-N-methyl-3-nitrobenzamide] | 0.1 to 1 µM
14 | CNC(=O)c1cc(Cl)cc([N+](=O)[O-])c1N[C@H]1CN(C(=O)c2cncc3cc(O)ccc23)CCC1(F)F [Compound 168, (S)-5-chloro-2-((4,4-difluoro-1-(7-hydroxyisoquinoline-4-carbonyl)piperidin-3-yl)amino)-N-methyl-3-nitrobenzamide] | < 0.1 µM
15 | NC(=O)c1cc(Br)cc([N+](=O)[O-])c1N[C@H]1CN(C(=O)c2cncc3ccccc23)CCC1(F)F [Compound 49, (S)-5-bromo-2-((4,4-difluoro-1-(isoquinoline-4-carbonyl)piperidin-3-yl)amino)-3-nitrobenzamide] | < 0.1 µM
16 | CNC(=O)c1cc(Cl)cc([N+](=O)[O-])c1N[C@H]1CN(C(=O)c2cncc3cnccc23)CCC1(F)F [Compound 175, (S)-5-chloro-2-((4,4-difluoro-1-(2,7-naphthyridine-4-carbonyl)piperidin-3-yl)amino)-N-methyl-3-nitrobenzamide] | < 0.1 µM

Row | Structure (SMILES) | IC50
17 | CC1(NC(=O)c2cc(Cl)cc([N+](=O)[O-])c2N[C@H]2CN(C(=O)c3cncc4ccccc34)CCC2(F)F)CC1 [Compound 152, (S)-5-chloro-2-((4,4-difluoro-1-(isoquinoline-4-carbonyl)piperidin-3-yl)amino)-N-(1-methylcyclopropyl)-3-nitrobenzamide] | < 0.1 µM
18 | O=C(N[C@@H]1CCNC1)c1cc(Br)cc([N+](=O)[O-])c1N[C@H]1CN(C(=O)c2cncc3ccccc23)CC1(F)F [Compound 150] | < 0.1 µM
19 | CNC(=O)c1cc(Br)cc([N+](=O)[O-])c1N1CCC2(CN(C(=O)c3cncc4ccccc34)C2)C1 [Compound 10, 5-bromo-2-(2-(isoquinoline-4-carbonyl)-2,6-diazaspiro[3, 4]octan-6-yl)-N-methyl-3-nitrobenzamide] | ≥ 10 µM
20 | CNC(=O)c1cc(Cl)cc([N+](=O)[O-])c1NC(C(C)C)C1CN(C(=O)c2cncc3ccccc23)C1 (centres unmarked) [Compound 130, 5-chloro-2-((1-(1-(isoquinoline-4-carbonyl)azetidin-3-yl)-2-methylpropyl)amino)-N-methyl-3-nitrobenzamide acid] | 0.1 to 1 µM
21 | CC(C)C(Nc1c(-c2nnc[nH]2)cc(Br)cc1[N+](=O)[O-])C1CN(C(=O)c2cncc3ccccc23)C1 (centres unmarked) [Compound 17, (3-(1-((4-bromo-2-nitro-6-(4H-1,2,4-triazol-3-yl)phenyl)amino)-2-methylpropyl)azetidin-1-yl)(isoquinolin-4-yl)methanone] | 0.1 to 1 µM
22 | O=C(NC1CC(F)(F)C1)c1cc(Br)cc([N+](=O)[O-])c1N[C@H]1CN(C(=O)c2cncc3ccccc23)CC(F)(F)C1 [Compound 134, (R)-5-bromo-2-((5,5-difluoro-1-(isoquinoline-4-carbonyl)piperidin-3-yl)amino)-N-(3,3-difluorocyclobutyl)-3-nitrobenzamide] | 0.1 to 1 µM
23 | O=C(c1cc(Cl)cc([N+](=O)[O-])c1N[C@H]1CN(C(=O)c2cncc3cccnc23)CCC1(F)F)N1CC(O)C1 [Compound 112, (S)-(5-chloro-2-((4,4-difluoro-1-(1,6-naphthyridine-8-carbonyl)piperidin-3-yl)amino)-3-nitrophenyl)(3-hydroxyazetidin-1-yl)methanone] | < 0.1 µM
24 | COC1CN(C(=O)c2cc(Cl)cc([N+](=O)[O-])c2N[C@H]2CN(C(=O)c3cncc4cccnc34)CCC2(F)F)C1 [Compound 111, (S)-(5-chloro-2-((4,4-difluoro-1-(1,6-naphthyridine-8-carbonyl)piperidin-3-yl)amino)-3-nitrophenyl)(3-methoxyazetidin-1-yl)methanone] | < 0.1 µM
25 | CNC(=O)c1cc(Cl)cc([N+](=O)[O-])c1N[C@H]1CN(C(=O)c2cncc3cnn(C)c23)CCC1(F)F [Compound 106, (S)-5-chloro-2-((4,4-difluoro-1-(1-methyl-1H-pyrazolo[4,3-c]pyridine-7-carbonyl)piperidin-3-yl)amino)-N-methyl-3-nitrobenzamide] | < 0.1 µM
26 | CNC(=O)c1cc(Br)cc([N+](=O)[O-])c1N[C@H]1CN(C(=O)C2CC(=O)NC(=O)C2)CCC1(F)F [Compound 100, (S)-5-bromo-2-((1-(2,6-dioxopiperidine-4-carbonyl)-4,4-difluoropiperidin-3-yl)amino)-N-methyl-3-nitrobenzamide] | 0.1 to 1 µM
27 | CNC(=O)c1cc(Br)cc([N+](=O)[O-])c1NC(C(C)C)C1CN(C(=O)c2cncc(C(F)(F)F)c2)C1 (centres unmarked) [Compound 73, 5-bromo-N-methyl-2-((2-methyl-1-(1-(5-(trifluoromethyl)nicotinoyl)azetidin-3-yl)propyl)amino)-3-nitrobenzamide] | 1 to 10 µM
28 | CN(C)C(=O)c1cc(Br)cc([N+](=O)[O-])c1N[C@H]1CN(C(=O)c2cncc3ccccc23)CC1(F)F [Compound 161, (S)-5-bromo-2-((4,4-difluoro-1-(isoquinoline-4-carbonyl)pyrrolidin-3-yl)amino)-N, N-dimethyl-3-nitrobenzamide] | < 0.1 µM
29 | CNC(=O)c1cc(Br)cc([N+](=O)[O-])c1N[C@H]1CN(C(c2cncc3ccccc23)C(F)(F)F)CCC1(F)F (some centres unmarked) [Compound 140, 5-bromo-2-(((35)-4,4-difluoro-1-(2,2,2-trifluoro-1-(isoquinolin-4-yl)ethyl)piperidin-3-yl)amino)-N-methyl-3-nitrobenzamide] | ≥ 10 µM
30 | CNC(=O)c1cc(Br)cc([N+](=O)[O-])c1Nc1ccccc1NC(=O)c1cncc2ccccc12 [Compound 131, N-(2-((4-bromo-2-(methylcarbamoyl)-6-nitrophenyl)amino)phenyl) isoquinoline-4-carboxamide] | ≥ 10 µM
31 | CNC(=O)c1cc(Br)cc(C(F)(F)F)c1N[C@H]1CN(C(=O)c2cncc3ccccc23)CC[C@H]1F [Compound 181, 5-bromo-2-(((3S,4R)-4-fluoro-1-(isoquinoline-4-carbonyl)piperidin-3-yl)amino)-N-methyl-3-(trifluoromethyl)benzamide] | < 0.1 µM
32 | CN(C)C(=O)c1cc(Cl)cc([N+](=O)[O-])c1N[C@H]1CN(C(=O)c2cncc3ccccc23)CC[C@@H]1F [Compound 177] | < 0.1 µM
